Values after ≈ are worked out from the molar mass of the structure shown.
Experiments:
Assay type in all cases: cell-based
[1] = tested on: ciprofloxacin-resistant (gyrA and parC genotype) S. aureus; experiment: Agar dilution MIC against resistant S. aureus; conditions: Staphylococcus aureus
Description: (§1) The in vitro activity of CEM-102 was compared with that of telithromycin, azithromycin, erythromycin, levofloxacin, linezolid, and doxycycline against a total of 145 resistant S. aureus by agar dilution procedures (CLSI, M7-A7, M100-S18). The tested strains included S. aureus MRSA (Mec A genotype; 100 isolates), macrolide-resistant (ermA, B, C genotype or MLSb-resistant; 25), and ciprofloxacin-resistant (gyrA and parC genotype; 20).

[2] = tested on: S. aureus MRSA (Mec A genotype); experiment: Agar dilution MIC against resistant S. aureus; conditions: Staphylococcus aureus
Description: as §1

[3] = tested on: macrolide-resistant S. aureus (ermA, B, C genotype or MLSb-resistant); experiment: Agar dilution MIC against resistant S. aureus; conditions: Staphylococcus aureus
Description: as §1

[4] = Synergy testing by the checkerboard method, FA/co-drug; conditions: FA combined with the co-drug
Description: CLSI broth microdilution (BMD) and anaerobic agar dilution (AD) methods were performed. Modifications of standard test methods included adding 10% human serum, adjusting the medium pH to 5, 6, and 8, and synergy was assessed by the checkerboard method. Mutational rates to R were determined at 4×.

S. pyogenes [SPYO] = experiment: Reference broth microdilution susceptibility testing, Canadian isolates
Description: (§2) To determine a contemporary susceptibility (S) spectrum pattern. 153 GP isolates (123 S. aureus, 15 coagulase-negative staphylococci [CoNS] and 15 S. pyogenes [SPYO]) were collected from 5 Canadian medical centers between 2001 and 2006.

S. aureus [5] = experiment: as above; conditions: overall S. aureus population
Description: as §2

S. aureus [6] = experiment: MIC population distribution, 217 S. aureus Canadian isolates; conditions: 217 Canadian isolates

| Compound | MIC90 [1] [µg/mL] | MIC90 [2] [µg/mL] | MIC90 [3] [µg/mL] | Additive (number) [4] | Antagonism (number) [4] | Indeterminate (number) [4] | Indifferent (number) [4] | Synergy Complete (number) [4] | Synergy Partial (number) [4] | R rate (S. pyogenes [SPYO]) [%] | R rate (S. aureus [5]) [%] | resistance rate (S. aureus [6]) [%] |
| --- | --- | --- | --- | --- | --- | --- | --- | --- | --- | --- | --- | --- |
| C[C@H]1c2cccc(O)c2C(=O)C2=C(O)[C@]3(O)C(=O)C(C(N)=O)=C(O)[C@@H](N(C)C)[C@@H]3[C@@H](O)[C@@H]21 [doxycycline] | 1 (≈ 2.25 µM) | 1 (≈ 2.25 µM) | – | – | – | – | – | – | – | – | – | – |
| C[C@H]1COc2c(N3CCN(C)CC3)c(F)cc3c(=O)c(C(=O)O)cn1c23 [Levofloxacin] | > 32 | 16 (≈ 44.3 µM) | 4 (≈ 11.1 µM) | 0 | 0 | 2 | 4 | 0 | 0 | – | – | – |
| CCC[C@@H]1C[C@@H](C(=O)N[C@@H]([C@H]2O[C@H](SC)[C@H](O)[C@@H](O)[C@H]2O)[C@H](C)Cl)N(C)C1 [clindamycin] | – | – | – | – | – | – | – | – | – | 13.3 | 28.5 | 30.9 |
| CC(=O)NC[C@H]1CN(c2ccc(N3CCOCC3)c(F)c2)C(=O)O1 [linezolid] | 2 (≈ 5.93 µM) | 2 (≈ 5.93 µM) | 2 (≈ 5.93 µM) | – | – | – | – | – | – | – | – | – |
| Gentamicin | – | – | – | 3 | 0 | 0 | 1 | 1 | 1 | – | – | – |
| CC[C@H]1OC(=O)[C@H](C)[C@@H](O[C@H]2C[C@@](C)(OC)[C@@H](O)[C@H](C)O2)[C@H](C)[C@@H](O[C@@H]2O[C@H](C)C[C@H](N(C)C)[C@H]2O)[C@](C)(O)C[C@@H](C)C(=O)[C@H](C)[C@@H](O)[C@]1(C)O [erythromycin] | > 32 | > 32 | > 32 | – | – | – | – | – | – | 20.0 | 52.0 | 52.1 |
| CN[C@H](CC(C)C)C(=O)N[C@H]1C(=O)N[C@@H](CC(N)=O)C(=O)N[C@H]2C(=O)N[C@H]3C(=O)N[C@H](C(=O)N[C@H](C(=O)O)c4cc(O)cc(O)c4-c4cc3ccc4O)[C@H](O)c3ccc(c(Cl)c3)Oc3cc2cc(c3O[C@@H]2O[C@H](CO)[C@@H](O)[C@H](O)[C@H]2O[C@H]2C[C@](C)(N)[C@H](O)[C@H](C)O2)Oc2ccc(cc2Cl)[C@H]1O [Vancomycin] | – | – | – | 2 | 0 | 0 | 4 | 0 | 0 | – | – | – |
| CC[C@H]1OC(=O)[C@H](C)C(=O)[C@H](C)[C@@H](O[C@@H]2O[C@H](C)C[C@H](N(C)C)[C@H]2O)[C@](C)(OC)C[C@@H](C)C(=O)[C@H](C)[C@H]2N(CCCCn3cnc(-c4cccnc4)c3)C(=O)O[C@]12C [telithromycin] | 0.06 (≈ 0.0739 µM) | 0.06 (≈ 0.0739 µM) | 4 (≈ 4.93 µM) | – | – | – | – | – | – | – | – | – |
| Cc1onc(-c2ccccc2)c1C(=O)N[C@@H]1C(=O)N2[C@@H]1SC(C)(C)[C@@H]2C(=O)O [Oxacillin] | – | – | – | 1 | 0 | 1 | 3 | 0 | 1 | – | – | – |
| CO[C@H]1/C=C/O[C@@]2(C)Oc3c(C)c(O)c4c(O)c(c(/C=N/N5CCN(C)CC5)c(O)c4c3C2=O)NC(=O)/C(C)=C\C=C\[C@H](C)[C@H](O)[C@@H](C)[C@@H](O)[C@@H](C)[C@H](OC(C)=O)[C@@H]1C [Rifampin] | – | – | – | 1 | 0 | 0 | 0 | 0 | 5 | – | – | – |
| CC[C@H]1OC(=O)[C@H](C)[C@@H](O[C@H]2C[C@@](C)(OC)[C@@H](O)[C@H](C)O2)[C@H](C)[C@@H](O[C@@H]2O[C@H](C)C[C@H](N(C)C)[C@H]2O)[C@](C)(O)C[C@@H](C)CN(C)[C@H](C)[C@@H](O)[C@]1(C)O [azithromycin] | 16 (≈ 21.4 µM) | > 32 | > 32 | – | – | – | – | – | – | – | – | – |

Reference: patent US20190388437A1, “COMPOSITIONS AND METHODS FOR TREATING BONE AND JOINT INFECTIONS” (priority 2014, published 2019)
